These results are taken from patent publication US20260284016A1, “COMBINATIONS AND METHODS FOR ENHANCING CHECKPOINT INHIBITOR THERAPIES IN CANCER TREATMENT” (PURDUE RESEARCH FOUNDATION, priority 2004, published 2026).

This test has as its system M2-induced THP-1 macrophages. Kind of test: Reprogramming of M2-polarized THP-1 macrophages, marker mRNA by qPCR. Format: cell-based, human. The procedure: THP-1 cells were seeded into 96-well plates at a density of 60,000 cells/well. Cells were differentiated into unpolarized macrophages by 48 hours incubation with 200 nM PMA followed by 24 hours incubation in fresh RPMI medium. […] Cultures were maintained at 37° C., in a humidified 5% CO2 incubator.
Total RNA was isolated from 1×10^5-2×10^5 macrophages using a Quick-RNA™ MicroPrep kit (Zymo Research, Irvine, CA) according to the manufacturer-recommended protocol. The RNA samples were then reverse-transcribed into cDNA using high-capacity cDNA reverse transcription kits (Applied Biosystems, Foster City, CA; #4368814), qPCR analyses were performed using the iTaq™ Universal SYBR Green SuperMix (Bio-Rad Laboratories GmbH, Hercules, CA; #1725121), iCycler thermocycler, and iCycler iQ 3.0 software (Bio-Rad Laboratories GmbH, Hercules, CA) to track the expression of markers characteristic of macrophage polarization states, IL-6, CXCL10, IFNα, IFN-γ and CD86 were used as markers for an M1 phenotype, while CCL18. CD206, CD163 and Arg1 were employed as markers for the M2 phenotype, IL-1β, PDGFβ, MMP9 and TIMP 3 were measured as indicators of an anti-inflammatory phenotype. IRAK-4 was used as an indicator of TLR7 stimulation. To control for specificity of the amplification products, a melting curve analysis was performed. […] Each sample was analyzed independently in triplicate for each marker.
In both data sets, the cells were harvested for gene analysis by qPCR.
Primarily, human monocytic (THP-1) cells were induced to the M2-like phenotype using the methods and materials previously described. In particular, THP-1 cells were seeded into 96-well plates at a density of 60,000 cells/well. Cells were differentiated into unpolarized macrophages by 48 h incubation with 200 nM PMA followed by 24 hours incubation in fresh RPMI medium. The resulting macrophages were polarized to an M2-like phenotype by incubation with […] IL-4, 20 ng/ml […], and 5 ng/mL IL-6 for 48h. Cultures were maintained at 37° C. in a humidified 5% CO2 incubator.
In addition to the nonconjugated TLR7 agonist, conjugated compounds of the present disclosure were likewise evaluated. Human THP-1 cells were induced to macrophages having the M2-like phenotype per the methods set forth herein (e.g., using 20 ng/mL IL-4, 20 ng/mL IL-13, 5 ng/mL IL-6), then reprogrammed with different nM concentrations of various compounds of the present disclosure for 2 hours; namely, a nonconjugated (free drug) TLR7 agonist compound having formula I and/or II (data shown collectively as Compound 3A), a folate-conjugated TLR7 agonist compound having formula XV (having a releasable linker) (e.g., Compound 3B), a folate-conjugated TLR7 agonist compound having formula XVII (having a non-releasable linker) (e.g., Compound 3C), and a folate-conjugated TLR7 agonist compound having formula XVI (having a non-releasable linker) (e.g., Compound 3D). The cells were subsequently harvested for gene analysis by qPCR and the relative expression of CCL18 (FIG. 14A), CD206 (FIG. 14B), and IL-1β (FIG. 14C) analyzed.

Where [1] appears, read: 2 hours with drug, then drug-free medium.

In the case of `CCCCc1nc2c(N)nc3ccccc3c2n1CC(C)(C)OC(=O)OCCSSCC(NC(=O)CCC(NC(=O)c1ccc(NCc2cnc3nc(N)[nH]c(=O)c3n2)cc1)C(=O)O)C(=O)O` (stereo not drawn) [Compound 1B], the “anti-inflammatory/M2-type markers (CCL18, CD206, IL-1β, PDGFβ mRNA)” value (2 hours incubation, harvested at once or after further 46 hours) is on record as “downregulated anti-inflammatory/M2-type markers of macrophages more than Compound 1A”. Under setting [1], the TNFα induction entry is “dramatically improved” and the potency in reprogramming entry is listed as “superior potency relative to Compound 1A”.
